# Measurements as given in publication PMC10194981, “Chemosensory protein regulates the behavioural response of Frankliniella intonsa and Frankliniella occidentalis to tomato zonate spot virus–Infected pepper (Capsicum annuum)” (PLOS Pathogens, 2023).
# Key:
# FoccCSP-Asp64Ala = FoccCSP-Asp64Ala (Frankliniella occidentalis, UniProt G4Y3X1, D64A); test: Fluorescence (1-NPN) binding and competitive binding assay, FoccCSP mutant
# Procedure: (§1) The binding affinity of FintCSP1 and FoccCSP to the fluorescent probe N-phenyl-1-naphthylamine (1-NPN) was tested using a Spectramax M2 fluorescence spectrometer (Molecular Devices, USA) as reported previously. […] The 1-NPN/FintCSP1 or 1-NPN/FoccCSP mixture was excited at 280 nm, and the emission spectra were recorded at 415 nm. The binding constants (Kd) of FintCSP1 or FoccCSP to 1-NPN were calculated by Scatchard analysis using Prism 5 software (GraphPad, La Jolla, CA, USA). Assuming a protein activity of 100% and that the volatile compound binds to the protein in a 1:1 ratio at saturation, the dissociation constants (Ki) of FintCSP1 or FoccCSP for each ligand were calculated according to the IC50 (the concentration when the ligand replaces 50% of the probe) value of the volatile compounds. The Ki values were calculated according to the following equation: Ki = [IC50]/(1 + [1-NPN]/K1-NPN), where [1-NPN] is the free concentration of 1-NPN, and K1-NPN is the Kd of the 1-NPN/FintCSP1 or 1-NPN/FoccCSP.
# (§2) To verify the key amino acids of FintCSP1 and FoccCSP that bind to cis-3-hexenal, six amino acid residues of FintCSP1 were mutated (Lys26Ala, Phe27Ala, Thr28Ala, Glu67Ala, Ser84Ala, and the negative control residue Val132Ala) and nine amino acid residues of FoccCSP were mutated (Lys26Ala, Phe27Ala, Thr28Ala, Thr29Ala, Tyr31Ala, Asp64Ala, Glu67Ala, Gln87Ala, and the negative control residue Val132Ala) with the Fast Mutagenesis System Kit (Transgen Biotech, Beijing, China) using the pET-30a/FintCSP1 and pET-30a/FoccCSP plasmid DNA as template, respectively. Specific primers were designed using Primer Premier 5.0 according to the instructions of the Fast Mutagenesis System Kit (S1 Table). After validation by sequencing, each recombinant variant protein was produced and purified as described above, and their binding affinity to cis-3-hexenal was measured as described above.
# FoccCSP-Glu67Ala = FoccCSP-Glu67Ala (Frankliniella occidentalis, UniProt G4Y3X1, E67A); test: as above
# Procedure: as §1, §2
# FoccCSP-Phe27Ala = FoccCSP-Phe27Ala (Frankliniella occidentalis, UniProt G4Y3X1, F27A); test: as above
# Procedure: as §1, §2
# FoccCSP-Thr28Ala = FoccCSP-Thr28Ala (Frankliniella occidentalis, UniProt G4Y3X1, T28A); test: as above
# Procedure: as §1, §2
# FoccCSP-Thr29Ala = FoccCSP-Thr29Ala (Frankliniella occidentalis, UniProt G4Y3X1, T29A); test: as above
# Procedure: as §1, §2
# F. intonsa = test: Y-tube olfactometer preference test; type: in vivo, Frankliniella intonsa
# Procedure: F. intonsa and F. occidentalis preference tests of plant volatile cues were performed using a glass Y-tube olfactometer according to the method described by Wang et al. (2014) with minor modifications. A Y-shaped tube (1-cm inner diameter) consisted of a central tube (10 cm in length) and two arms (10 cm in length, offset by 60°) connected to two different glass odor bottles. One glass odor bottle was 50 cm in height, with a 10-cm inner diameter that contained pepper plants (14-day post-viral infection); the other glass odor bottle was 5 cm in height, with a 3-cm inner diameter for plant VOCs. The airflow in the olfactometer (200 mL/min) was filtered through activated carbon and calibrated using a flow meter at the end of each arm. To remove all visual cues, the Y-tube was positioned horizontally in a black airtight cubic box (90 cm × 60 cm × 40 cm). The tested odor sources (pepper plant VOCs) were enclosed in the odor bottles 5 min prior to each test to allow the odors to fill the arms. Thrips (2-day-old, starved for 1 h) were individually placed in the central tube and allowed to choose between the two arms. When the thrips had climbed over 2/3 of the side arm and stayed there for more than 30 s, it was considered to have made a selection. If the thrips had not made a choice after being placed in the straight arm for 5 min, the insect behaviour was scored as “no selection,” and it was not counted in the total data. The direction of the Y-tube arms and the silicone tubes were adjusted after five tested thrips to eliminate the influence of position. The Y-tube was replaced after 10 tested thrips to eliminate the possible influence of existing odors on thrips behaviour. Each treatment consisted of 20 thrips, with three replicates per treatment.
# The FintCSP1, FintCSP2, FintOBP, FintOR, FoccCSP, and enhanced green fluorescent protein (EGFP) coding sequences were obtained from GenBank under accession numbers MT199111, MT211602, OK067245, MT211603, AEP27186.1, and U55761.1, respectively. Primers were designed using Primer Premier 5.0, and the T7 promoter sequence (5′-[…]-3′) was added to the 5′ end of each primer (S1 Table). DNA fragments containing T7 promoter sequences were amplified by PCR using pEASY-T1/target gene or pUC-EGFP (preserved in the laboratory) plasmid DNA as template. Then, a double-stranded RNA (dsRNA) was produced from each target gene using the HiScribe T7 Quick High Yield RNA Synthesis Kit (New England Biolabs) according to the manufacturer’s instructions. […]
# Chain of FoccCSP-Asp64Ala (G4Y3X1 entry or part of it D64A): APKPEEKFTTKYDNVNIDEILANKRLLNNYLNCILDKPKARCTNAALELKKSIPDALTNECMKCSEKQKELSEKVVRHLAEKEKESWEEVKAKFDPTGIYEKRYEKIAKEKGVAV
# Chain of FoccCSP-Glu67Ala (G4Y3X1 entry or part of it E67A): as the sequence (G4Y3X1 entry or part of it D64A) above, with A45D, E48A counted along it
# Chain of FoccCSP-Phe27Ala (G4Y3X1 entry or part of it F27A): as the sequence (G4Y3X1 entry or part of it D64A) above, with F8A, A45D counted along it
# Chain of FoccCSP-Thr29Ala (G4Y3X1 entry or part of it T29A): as the sequence (G4Y3X1 entry or part of it D64A) above, with T10A, A45D counted along it
# Chain of FoccCSP-Thr28Ala (G4Y3X1 entry or part of it T28A): as the sequence (G4Y3X1 entry or part of it D64A) above, with T9A, A45D counted along it
smiles,measurement,setting,value
CC/C=C\CC=O [cis-3-hexenal],IC50,FoccCSP-Asp64Ala,65.9 ± 0.79 µM
same,Ki,FoccCSP-Asp64Ala,62.2 ± 0.75 µM
same,binding affinity to cis-3-hexenal (in words),FoccCSP-Asp64Ala; FoccCSP-Asp64Ala compared to the wild-type protein,significantly decreased binding affinities
same,IC50,FoccCSP-Glu67Ala,92.9 ± 2.14 µM
same,Ki,FoccCSP-Glu67Ala,83.7 ± 1.93 µM
same,binding affinity to cis-3-hexenal (in words),FoccCSP-Glu67Ala; FoccCSP-Glu67Ala compared to the wild-type protein,significantly decreased binding affinities
same,IC50,FoccCSP-Phe27Ala,> 100 µM
same,affinity for cis-3-hexenal (in words),FoccCSP-Phe27Ala; FoccCSP-Phe27Ala,no affinity
same,IC50,FoccCSP-Thr28Ala,> 100 µM
same,affinity for cis-3-hexenal (in words),FoccCSP-Thr28Ala; FoccCSP-Thr28Ala,no affinity
same,IC50,FoccCSP-Thr29Ala,> 100 µM
same,affinity for cis-3-hexenal (in words),FoccCSP-Thr29Ala; FoccCSP-Thr29Ala,no affinity
same,individuals that recognized the compound,"F. intonsa; dsEGFP-treated F. intonsa, vs liquid paraffin control",73.3%
same,preference of FintCSP1-silenced thrips (in words),"F. intonsa; dsFintCSP1-injected F. intonsa, vs liquid paraffin control",no preference
same,preference of F. intonsa in Y-tube olfactometer (in words),"F. intonsa; volatile compound vs liquid paraffin control, n = 60",reached statistical significance
